Format in all cases: cell-based
In data set [1] the test system is primary porcine lens epithelial cells. Put plainly: αSMA expression in primary cultured porcine lens epithelial cells (pLEC). The protocol:
(§1) Cell Culture—Human lens epithelial cells (HLE-B3) were grown in DMEM medium with 10% fetal bovine serum (FBS), 2 mM glutamine and 50 unit/ml penicillin streptomycin (ThermoFisher, Waltham, Mass.) at 37° C. in a humidified 5% CO2 incubator. For primary porcine lens epithelial cell culture, pig eyes were collected at a local slaughterhouse within two hours of postmortem time, placed on ice and transported to the lab (about 1 hr) for immediate processing. First, the isolated lens was incubated with 2 ml of 0.25% trypsin at 37° C. for 2 min to remove any attached non-lens cells. Then, after a brief rinse with HBSS, the lens capsule was isolated and rinsed three times with HBSS before incubation with 2 ml of 0.5% trypsin for 5 min. 5 ml of complete DMEM medium was added and tissue was disrupted by pipetting up and down 10-15 times with a pipette fitted with a 1000 μl tip. The tissue homogenate was then passed through a 100 μm cell strainer. The cells were collected by low speed centrifugation at 150×g and placed in a 35 mm laminin-coated tissue culture dish with DMEM medium supplied with 10% FBS, 2 mM glutamine and 50 unit/ml penicillin streptomycin (ThernoFisher). The cells were cultured at 37° C. in a humidified incubator with 5% CO2.
Cells were placed 24 hr before the treatment and fresh medium was replaced immediately before the treatment. The indicated concentrations of BSO, DMF, NAC, GSH-EE or TGFβ2 were added to fresh medium and incubated at various time intervals as indicated. After treatment time, the cells were harvested after three washes with ice-cold PBS and subjected to immunoblot or other assays as described below. […]
The cells, whole lens, lens capsule, and lens fibers were collected and lysed in lysis buffer containing 20 mM Tris pH 7.5, 1 mM EDTA, 1 mM EGTA, 150 mM NaCl, 1% Triton X-100, 2.5 mM sodium pyrophosphate, 1 mM bα-Glycerolphosphate, 1 mM Na3VO4, 1 mg/ml Leupeptin, 1 mM PMSF on ice for 10 min. The protein concentration from the supernatant was determined by protein BCA assay (ThermoFisher). […]

Another data set concerns HLE-B3 cells. Put plainly: EMT marker / Wnt-β-catenin immunoblot in human lens epithelial cell line HLE-B3. Conditions: for type I collagen expression / vimentin expression: 24 h challenge, 25 μM DMF or both. As to the method: as §1
(§2) Cells were placed 24 hr before the treatment and fresh medium was replaced immediately before the treatment. The indicated concentrations of BSO, DMF, NAC, GSH-EE or TGFβ2 were added to fresh medium and incubated at various time intervals as indicated. After treatment time, the cells were harvested after three washes with ice-cold PBS and subjected to immunoblot or other assays as described below. For whole lens culture, the serum-free medium with or without BSO, NAC, GSH-EE or TGFβ2 was incubated immediately after isolation for 48 hr and the whole lens or lens capsule was collected for further analysis. For lens explant culture, 48 hr after explant culture, various stimulates were used in fresh serum-free medium for an additional 48 hr, and the explant was fixed with 10% formaldehyde for 10 min before immunofluorescence stain, as described below.
The cells, whole lens, lens capsule, and lens fibers were collected and lysed in lysis buffer containing 20 mM Tris pH 7.5, 1 mM EDTA, 1 mM EGTA, 150 mM NaCl, 1% Triton X-100, 2.5 mM sodium pyrophosphate, 1 mM bα-Glycerolphosphate, 1 mM Na3VO4, 1 mg/ml Leupeptin, 1 mM PMSF on ice for 10 min. The protein concentration from the supernatant was determined by protein BCA assay (ThermoFisher). The protein extract was further processed for immunoblot analysis and probed for αSMA, collagen I, vimentin, phosphorylated Smad2, phosphorylated Smad3, phosphorylated GSK-3β and (β-catenin. All data were normalized to the level of GAPDH.
(In western blotting, separated proteins are transferred to a membrane and probed.)

The test system of data set [2] is mouse lens ex vivo culture. The data set is described as follows: Mouse whole lens ex vivo culture, lens capsule immunoblot. The protocol:
The isolated intact lens was rinsed three times with HBSS and then cultured in 12-well-plates with serum-free Medium 199 (ThermoFisher) with 50 unit/ml penicillin streptomycin at 37° C. in 5% CO2 incubator, as described above. The lens explant was cultured following the same procedure as described by a previous report. […] et al., Exp Eye Res 71, 591-597 (2000). In brief, the mouse lens was placed in an anterior-toposterior orientation with the anterior attached to the culture dish. The lens posterior capsule was torn/cut by the tip of extra-fine forceps and then peeled towards anterior capsule and pinned on the plastic culture dish. The lens fiber mass was removed thereafter. The explant was cultured in serum-free MEM medium supplied with 50 unit/ml penicillin streptomycin at 37° C. in 5% CO2 incubator as described above. Only healthy growing explants were used for the described study and any unhealthy looking explants, such as folded explants or those with cell detachment, were discarded. Cells were placed 24 hr before the treatment and fresh medium was replaced immediately before the treatment. The indicated concentrations of BSO, DMF, NAC, GSH-EE or TGFβ2 were added to fresh medium and incubated at various time intervals as indicated. After treatment time, the cells were harvested after three washes with ice-cold PBS and subjected to immunoblot or other assays as described below. For whole lens culture, the serum-free medium with or without BSO, NAC, GSH-EE or TGFβ2 was incubated immediately after isolation for 48 hr and the whole lens or lens capsule was collected for further analysis. For lens explant culture, 48 hr after explant culture, various stimulates were used in fresh serum-free medium for an additional 48 hr, and the explant was fixed with 10% formaldehyde for 10 min before immunofluorescence stain, as described below. The cells, whole lens, lens capsule, and lens fibers were collected and lysed in lysis buffer containing 20 mM Tris pH 7.5, 1 mM EDTA, 1 mM EGTA, 150 mM NaCl, 1% Triton X-100, 2.5 mM sodium pyrophosphate, 1 mM bα-Glycerolphosphate, 1 mM Na3VO4, 1 mg/ml Leupeptin, 1 mM PMSF on ice for 10 min. The protein concentration from the supernatant was determined by protein BCA assay (ThermoFisher). The protein extract was further processed for immunoblot analysis and probed for αSMA, collagen I, vimentin, phosphorylated Smad2, phosphorylated Smad3, phosphorylated GSK-3β and (β-catenin. All data were normalized to the level of GAPDH.

The subject of the next data set is lens explant. Put plainly: Mouse lens explant culture (ex vivo PCO mimetic model), αSMA immunofluorescence. Conditions: 1 ng/ml TGFβ2, 48 hr stimulation. As to the method: The isolated intact lens was rinsed three times with HBSS and then cultured in 12-well-plates with serum-free Medium 199 (ThermoFisher) with 50 unit/ml penicillin streptomycin at 37° C. in 5% CO2 incubator, as described above. The lens explant was cultured following the same procedure as described by a previous report. Tamiya et al., Exp Eye Res 71, 591-597 (2000). In brief, the mouse lens was placed in an anterior-toposterior orientation with the anterior attached to the culture dish. The lens posterior capsule was torn/cut by the tip of extra-fine forceps and then peeled towards anterior capsule and pinned on the plastic culture dish. The lens fiber mass was removed thereafter. The explant was cultured in serum-free MEM medium supplied with 50 unit/ml penicillin streptomycin at 37° C. in 5% CO2 incubator as described above. Only healthy growing explants were used for the described study and any unhealthy looking explants, such as folded explants or those with cell detachment, were discarded.
as §2, with “For lens explant culture, 48 hr after explant culture, various stimulates were used in fresh serum-free medium for an additional 48 hr, and the explant was fixed with 10% formaldehyde for 10 min before immunofluorescence stain, as described below.” left out
Confocal microscope—All confocal images were collected by a Leica SP8 gSTED confocal microscope equipped with two 3 Hyd SP GaAsP detectors and the AOBS system lasers include a 405 nm, Argon (458, 476, 488, 496, 514 nm), a tunable white light (470 to 670 nm), and a 592 nm STED depletion laser. For proper comparison, each channel of fluorescence was adjusted to the highest sensitivity/intensity but without over saturation from samples with the strongest signal. […]

Setting [3] is: HLE-B3 cells, 24 hr treatment with increasing concentration of BSO or DMF.
Setting [4] is: HLE-B3 cells, 24 hr, 500 μM BSO or 25 μM DMF.
[5] abbreviates: mouse lens ex vivo culture, 500 μM BSO, 48 hrs.
The mark [6] stands for this setting: HLE-B3 cells, XAV939 co-incubated with 500 μM BSO, 24 hr.
Where [7] appears, read: lens capsule after ex vivo lens culture, BSO plus XAV939, 48 hr.

The source of these data is patent publication US20200038355A1, “ANTIOXIDANTS FOR USE IN OPHTHALMIC SURGERY” (Case Western Reserve University, priority 2017, published 2020).

Entries after “also recorded” stand apart in the source; their conditions may differ. Where a name gives a salt, the structure may show the parent alone.

Turning to `CCCCS(=N)(=O)CCC(N)C(=O)O` (stereo not shown) [BSO, buthionine sulfoximine], the αSMA expression entry in data set [1] (pLECs, increased concentration of BSO, 24 hr) is “increases”; with HLE-B3 cells (setting [3]), “increased; also recorded: significantly upregulated”; in the data set on HLE-B3 cells (setting [4]), “Significantly increased”. For the same molecule, the “concentration required to stimulate a similar fold of αSMA production” value in data set [1] (primary porcine lens epithelial cells, 24 hr, 100 times lower than in HLE-B3) is 5 µM. Besides, the cell death result in data set [1] (primary porcine lens epithelial cells, higher dosages of BSO (>100 μM)) was “massive cell death and detachment”. In addition, the “phosphorylation status of Smad2 and Smad3” value in the data set on HLE-B3 cells (HLE-B3 cells with or without 500 μM BSO, 24 hr) was “no remarkable changes”. The “αSMA production, combination with TGFβ2” value in the data set with HLE-B3 cells (HLE-B3 cells, 500 μM BSO combined with 1 ng/ml TGFβ2, 24 hr) was “synergistic effect”. Also, the “phosphorylation at serine 9 of GSK-3β” value is “significantly elevated; also recorded: significantly increased” in the data set on HLE-B3 cells (HLE-B3 cells, 500 μM BSO, 24 hr) and “significantly increased” in data set [2] (lens capsules after whole lens ex vivo culture with BSO, 48 hr). In addition, in the data set with HLE-B3 cells (HLE-B3 cells, 500 μM BSO), the “type I collagen expression” value is on record as “Significantly increased; also recorded: significantly elevated”. Besides, the vimentin expression entry in the data set on HLE-B3 cells (HLE-B3 cells, 500 μM BSO) is on record as “Significantly increased; also recorded: significantly elevated”. For the same molecule, the “increase of vimentin expression compared to medium alone” value in data set [2] (setting [5]) is given as roughly 2 fold. Further, the “increase of αSMA expression compared to medium alone” value in data set [2] (setting [5]) is recorded as “over 3.5 fold”.

As to `COC(=O)/C=C/C(=O)OC` [DMF, dimethyl fumarate], in the data set on HLE-B3 cells (HLE-B3 cells, 500 μM BSO), the “type I collagen expression” value is “Significantly increased; also recorded: significantly elevated” and the vimentin expression entry is listed as “Significantly increased; also recorded: significantly elevated”. In the data set with HLE-B3 cells (setting [3]), the αSMA expression result was “increased; also recorded: significantly upregulated”. In the data set on HLE-B3 cells (setting [4]), the αSMA expression result is reported as “Significantly increased”.

For the molecule `Oc1nc(-c2ccc(C(F)(F)F)cc2)nc2c1CSCC2` [XAV939], in the data set on HLE-B3 cells (setting [6]), the “αSMA production after BSO challenge” value is “block” and the “β-catenin production after BSO challenge” value was “block”. Further, in data set [2] (setting [7]), the “αSMA production after BSO challenge” value is listed as “block” and the “β-catenin production after BSO challenge” value is on record as “block”.

B1: TGFβ2: Human TGFβ2, profibrogenic cytokine purchased from Sigma-Aldrich (protein, UniProt P61812 303-414, looked up)
Transforming growth factor …: ALDAAYCFRNVQDNCCLRPLYIDFKRDLGWKWIHEPKGYNANFCAGACPYLWSSDTQHSRVLSLYNTINPEASASPCCVSQDLEPLTILYYIGKTPKIEQLSNMIVKSCKCS
For B1, the “αSMA expression in lens explant compared to medium alone” value in the data set on lens explant is “activated; also recorded: profound elevation”.
